Assay results taken from US11292782B2, “Diarylhydantoin compounds and methods of use thereof” (Nuvation Bio Inc., priority 2018, dated 2022).
pIC50: −log10 of the molar value. Where two headings read alike, the source gives them in different places.

Key:
Type in all cases: cell-based
[1] = system: LNCaP-abl cells; assay: Cell proliferation assay, LNCaP-abl (CellTiter-Glo); settings: 72 h, 3 days; for activity at 3 µM: read-out: cell proliferation, % of vehicle at 3 μM; for activity at 10 µM: read-out: cell proliferation, % of vehicle at 10 μM
Experimental: LNCaP-abl (3,000 cells/well, received from Dr. Myles Brown, Dana Farber Cancer Institute), 22RV1 (1,000 cells/well), LNCaP (5,000 cells/well), or COS (3,000 cells/well) cells were plated in 96 well plates in 50 μl RPMI+10% FBS (Fisher Scientific, Waltham, Mass.). LNCaP, COS, and 22RV1 cells were obtained from ATCC. Cells were treated in RPMI+10% FBS with test articles, ranging from 1 nM to 10 μM. Three days later, viable cells (LNCaP-abl, 22RV1, and COS) were measured by CellTiter-Glo assay (Promega, Madison, Wis.). For LNCaP cells, medium containing test article was changed after 3 days of treatment, and after an additional 3 days of culture, viable cells were measured by CellTiter-Glo assay.
The LNCaP cell line is androgen responsive with AR and PSA expression. It contains a T877A mutation in the AR. The 22RV1 cell line is positive for AR and PSA with additional AR splice variants and is insensitive to androgen for cell proliferation. The LNCaP-abl cell line expresses both AR and GR but is insensitive to androgen for cell proliferation. COS-7 is used as an AR negative cell line in this experiment.

[2] = biological target: GR (Homo sapiens (Human), UniProt P04150); assay: GR antagonist assay (GRE-LUC luciferase, transfected COS-7 cells, with 0.1 nM dexamethasone); settings: for pIC50 / GR antagonist assay, % of vehicle: in the presence of 0.1 nM dexamethasone; for inhibition at 10 µM: COS-7, read-out: GR Antagonism % inhibition at 10 μM; for GR antagonist assay, % of vehicle: 10 μM
Sequence of GR (P04150 whole entry): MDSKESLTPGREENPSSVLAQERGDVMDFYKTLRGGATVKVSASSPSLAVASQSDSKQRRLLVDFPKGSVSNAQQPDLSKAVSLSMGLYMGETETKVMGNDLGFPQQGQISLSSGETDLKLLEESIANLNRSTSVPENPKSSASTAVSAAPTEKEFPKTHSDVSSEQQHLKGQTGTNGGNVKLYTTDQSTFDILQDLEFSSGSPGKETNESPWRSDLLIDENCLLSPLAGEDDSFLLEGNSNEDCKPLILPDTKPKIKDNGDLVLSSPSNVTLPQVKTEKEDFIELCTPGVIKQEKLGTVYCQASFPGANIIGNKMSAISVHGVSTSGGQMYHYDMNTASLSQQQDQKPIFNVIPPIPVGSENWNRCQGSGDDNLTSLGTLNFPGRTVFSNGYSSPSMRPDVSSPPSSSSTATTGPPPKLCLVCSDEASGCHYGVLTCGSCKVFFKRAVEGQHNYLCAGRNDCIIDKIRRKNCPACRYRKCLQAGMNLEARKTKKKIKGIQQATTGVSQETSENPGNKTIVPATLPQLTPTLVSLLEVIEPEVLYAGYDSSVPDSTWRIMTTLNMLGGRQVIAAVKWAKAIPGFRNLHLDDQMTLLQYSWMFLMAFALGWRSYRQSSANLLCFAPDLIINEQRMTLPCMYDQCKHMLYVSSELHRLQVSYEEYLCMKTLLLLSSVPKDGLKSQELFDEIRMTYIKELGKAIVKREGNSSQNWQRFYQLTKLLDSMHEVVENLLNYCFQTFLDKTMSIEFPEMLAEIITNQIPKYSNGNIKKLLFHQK
Experimental: COS-7 cells (ATCC, Manassas, Va.) were plated in 24 well plates in DME+5% csFBS without phenol red at 70,000 cells/well. Once the cells attached to the plates (typically after overnight incubation after plating), they were transfected in OPTIMEM medium (Life Technologies) using lipofectamine reagent (Life Technologies) with 0.25 μg GRE-LUC, 25 ng pCR3.1 GR, and 10 ng CMV-renilla LUC per well. Twenty-four hours after transfection, the cells were fed with DME+5% csFBS without phenol red (Fisher Scientific, Waltham, Mass.) and treated with the test compounds (1 pM to 10 μM dose range) in the presence of 0.1 nM dexamethasone (Sigma, St. Louis, Mo.). Sixteen to twenty-four hours after treatment, a luciferase assay was performed using the Dual Luciferase assay kit (Promega, Madison, Wis.). Firefly luciferase values were normalized to Renilla luciferase numbers.

[3] = biological target: Human AR (Homo sapiens (Human), UniProt P10275); assay: AR antagonist assay (GRE-LUC luciferase, transfected HEK-293 cells, with 0.1 nM R1881); settings: for pIC50: with 0.1 nM R1881; for inhibition at 1 µM: HEK293
Sequence of Human AR (P10275 whole entry): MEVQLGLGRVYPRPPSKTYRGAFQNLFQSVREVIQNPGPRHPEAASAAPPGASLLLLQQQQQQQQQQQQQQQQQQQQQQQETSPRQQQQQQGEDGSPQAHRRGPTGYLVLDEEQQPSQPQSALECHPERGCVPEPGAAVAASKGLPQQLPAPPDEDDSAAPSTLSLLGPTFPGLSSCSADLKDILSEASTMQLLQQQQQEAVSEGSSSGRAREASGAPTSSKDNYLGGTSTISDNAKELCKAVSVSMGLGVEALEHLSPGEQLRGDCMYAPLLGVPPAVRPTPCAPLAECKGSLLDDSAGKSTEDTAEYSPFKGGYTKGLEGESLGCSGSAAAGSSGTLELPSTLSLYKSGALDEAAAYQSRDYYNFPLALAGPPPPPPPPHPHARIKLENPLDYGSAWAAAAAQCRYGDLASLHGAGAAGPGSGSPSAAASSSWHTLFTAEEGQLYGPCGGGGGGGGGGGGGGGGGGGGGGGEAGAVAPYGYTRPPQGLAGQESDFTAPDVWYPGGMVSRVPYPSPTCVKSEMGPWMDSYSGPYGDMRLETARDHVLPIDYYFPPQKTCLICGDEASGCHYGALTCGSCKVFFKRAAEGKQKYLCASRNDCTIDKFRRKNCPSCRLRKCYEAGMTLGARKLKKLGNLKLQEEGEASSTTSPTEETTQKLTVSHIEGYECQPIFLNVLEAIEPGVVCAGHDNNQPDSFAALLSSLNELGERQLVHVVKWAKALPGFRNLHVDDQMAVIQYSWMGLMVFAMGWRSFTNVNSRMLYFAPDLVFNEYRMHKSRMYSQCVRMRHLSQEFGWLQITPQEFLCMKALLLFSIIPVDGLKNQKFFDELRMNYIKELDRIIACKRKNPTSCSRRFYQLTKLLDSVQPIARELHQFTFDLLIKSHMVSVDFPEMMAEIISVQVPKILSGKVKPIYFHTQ
Experimental: Human AR cDNA cloned into pCMV vector, GRE-LUC, and CMV-renilla-LUC were used to transfect cells. HEK-293 cells (ATCC) were plated at 120,000 cells per well of a 24 well plate in DME+5% csFBS (Fisher Scientific, Waltham, Mass.). The cells were transfected using Lipofectamine (Life Technologies, Carlsbad, Calif.) with 0.25 μg GRE-LUC, 0.010 μg CMV-LUC (renilla luciferase) and 25 ng of the AR. […] Luciferase assay was performed 48 hrs after transfection. Firefly luciferase assay values were normalized to renilla luciferase values and were graphed using graphpad prism software (La Jolla, Calif.). […] The IC50 or EC50 values were determined using non-linear regression and […] logistics fitting.

Structure (SMILES) | pIC50 [2] | pIC50 [3] | inhibition at 10 µM [2] | other results
CC1(C)C(=O)N(c2ccc(C#N)c(C(F)(F)F)c2)C(=S)N1c1ccc(CNC(=O)c2nccs2)c(F)c1 [Compound 2] | < 5.00 | 7.51 |  | activity at 3 µM [1]: 78%; activity at 10 µM [1]: 71%
CC1(C)C(=O)N(c2ccc(C#N)c(C(F)(F)F)c2)C(=S)N1c1ccc(CNC(=O)c2ncc[nH]2)c(F)c1 [Compound 3] | < 5.00 | 6.74 |  | 
CC1(C)C(=O)N(c2ccc(C#N)c(C(F)(F)F)c2)C(=S)N1c1ccc(CNC(=O)c2cncs2)c(F)c1 [Compound 5] | < 5.00 | 7.03 |  | activity at 3 µM [1]: 99%; activity at 10 µM [1]: 96%
CC(C)C(=O)NCc1ccc(N2C(=S)N(c3ccc(C#N)c(C(F)(F)F)c3)C(=O)C2(C)C)cc1F [Compound 7] | < 5.00 | 6.74 |  | activity at 3 µM [1]: 67%; activity at 10 µM [1]: 73%
CC1(C)C(=O)N(c2ccc(C#N)c(C(F)(F)F)c2)C(=S)N1c1ccc(CNC(=O)C2CC2)c(F)c1 [Compound 11] | < 5.00 | 6.92 |  | activity at 3 µM [1]: 103%; activity at 10 µM [1]: 79%
CC1(C)C(=O)N(c2ccc(C#N)c(C(F)(F)F)c2)C(=S)N1c1ccc(CNC(=O)c2ccncn2)c(F)c1 [Compound 14] |  |  | 22% | 
CC1(C)C(=O)N(c2ccc(C#N)c(C(F)(F)F)c2)C(=S)N1c1ccc(CNC(=O)c2cncnc2)c(F)c1 [Compound 15] | < 5.00 | 6.49 |  | activity at 3 µM [1]: 81%; activity at 10 µM [1]: 70%
CC(C)C(=O)NCc1ccc(N2C(=O)N(c3ccc(C#N)c(C(F)(F)F)c3)C(=O)C2(C)C)cc1F [Compound 20] | < 5.00 | 5.73 |  | 
CC1(C)C(=O)N(c2ccc(C#N)c(C(F)(F)F)c2)C(=O)N1c1ccc(CNC(=O)c2ccccn2)c(F)c1 [Compound 23] | < 5.00 | 6.74 |  | activity at 3 µM [1]: 84%; activity at 10 µM [1]: 43%
CC1(C)C(=O)N(c2ccc(C#N)c(C(F)(F)F)c2)C(=O)N1c1ccc(CNC(=O)C2CC2)c(F)c1 [Compound 24] | < 5.00 | 5.96 |  | 
CC1(C)C(=O)N(c2ccc(C#N)c(C(F)(F)F)c2)C(=S)N1c1ccc(CNC(=O)c2cncs2)c(Cl)c1 [Compound 25] | < 5.00 | 7.00 |  | activity at 3 µM [1]: 96%; activity at 10 µM [1]: 64%
CC1(C)C(=O)N(c2ccc(C#N)c(C(F)(F)F)c2)C(=O)N1c1ccc(CNC(=O)c2cncs2)cc1 [Compound 27] | < 5.00 | 6.30 |  | 
CC1(C)C(=O)N(c2ccc(C#N)c(C(F)(F)F)c2)C(=O)N1c1ccc(CNC(=O)c2cccnc2)c(F)c1 [Compound 29] | < 5.00 | 6.04 |  | activity at 3 µM [1]: 90%; activity at 10 µM [1]: 92%
CC1(C)C(=O)N(c2cnc(C#N)c(C(F)(F)F)c2)C(=S)N1c1ccc(CNC(=O)c2ncccn2)c(Cl)c1 [Compound 30] | < 5.00 | 7.14 |  | 
CC1(C)C(=O)N(c2ccc(C#N)c(C(F)(F)F)c2)C(=S)N1c1ccc(CNC(=O)c2ncccn2)c(Cl)c1 [Compound 31] | < 5.00 | 7.21 |  | 
Cc1ncsc1C(=O)NCc1ccc(N2C(=S)N(c3ccc(C#N)c(C(F)(F)F)c3)C(=O)C2(C)C)cc1Cl [Compound 32] | < 5.00 | 6.92 |  | activity at 3 µM [1]: 93%; activity at 10 µM [1]: 62%
CC1(C)C(=O)N(c2ccc(C#N)c(C(F)(F)F)c2)C(=O)N1c1ccc(CNC(=O)c2ncccn2)cc1 [Compound 33] |  | 6.52 | 3% | 
CC1(C)C(=O)N(c2cnc(C#N)c(C(F)(F)F)c2)C(=S)N1c1ccc(CNC(=O)c2cncs2)c(Cl)c1 [Compound 36] | < 5.00 | 6.24 |  | activity at 3 µM [1]: 82%; activity at 10 µM [1]: 59%
Cc1ncsc1C(=O)NCc1ccc(N2C(=S)N(c3cnc(C#N)c(C(F)(F)F)c3)C(=O)C2(C)C)cc1Cl [Compound 38] | < 5.00 | 6.62 |  | activity at 3 µM [1]: 59%; activity at 10 µM [1]: 56%

Structure (SMILES) | pIC50 [2] | pIC50 [3] | inhibition at 10 µM [2] | other results
Cc1cccnc1C(=O)NCc1ccc(N2C(=S)N(c3ccc(C#N)c(C(F)(F)F)c3)C(=O)C2(C)C)cc1F [Compound 40] |  |  | 48% | 
CC1CC1C(=O)NCc1ccc(N2C(=S)N(c3ccc(C#N)c(C(F)(F)F)c3)C(=O)C2(C)C)cc1F (stereo not shown) [Compound 41] |  |  |  | inhibition at 1 µM [3]: 88%
Cc1ccccc1C(=O)NCc1ccc(N2C(=S)N(c3ccc(C#N)c(C(F)(F)F)c3)C(=O)C2(C)C)cc1F [Compound 43] |  |  | 0% | inhibition at 1 µM [3]: 94%
CC1(C)C(=O)N(c2ccc(C#N)c(C(F)(F)F)c2)C(=S)N1c1ccc(CNC(=O)c2ccccc2F)c(F)c1 [Compound 47] |  |  | 46% | 
CC1(C)C(=O)N(c2cnc(C#N)c(C(F)(F)F)c2)C(=S)N1c1ccc(CNC(=O)c2ccccn2)c(F)c1 [Compound 50] |  |  |  | inhibition at 10 µM ([2]; 10 μM single concentration): 69%
Cc1ncsc1C(=O)NCc1ccc(N2C(=S)N(c3cnc(C#N)c(C(F)(F)F)c3)C(=O)C2(C)C)cc1F [Compound 51] |  |  |  | inhibition at 10 µM ([2]; 10 μM single concentration): 35%; inhibition at 1 µM [3]: 93%
CC1(C(=O)NCc2ccc(N3C(=S)N(c4ccc(C#N)c(C(F)(F)F)c4)C(=O)C3(C)C)cc2F)CC1 [Compound 52] |  |  | 56% | 
CC1(C)C(=O)N(c2ccc(C#N)c(C(F)(F)F)c2)C(=S)N1c1cnc(CNC(=O)c2ccccn2)c(F)c1 [Compound 53] |  |  | 66% | 
CC1(C)C(=O)N(c2ccc(C#N)c(C(F)(F)F)c2)C(=S)N1c1ccc(CNC(=O)c2cocn2)c(F)c1 [Compound 54] |  |  | 56% | 
Cc1ncsc1C(=O)NCc1ncc(N2C(=S)N(c3ccc(C#N)c(C(F)(F)F)c3)C(=O)C2(C)C)cc1F [Compound 55] |  |  | 58% | 
Cc1nnc(C(=O)NCc2ccc(N3C(=S)N(c4ccc(C#N)c(C(F)(F)F)c4)C(=O)C3(C)C)cc2F)o1 [Compound 62] |  |  | 0% | 
CN1CC(C(=O)NCc2ccc(N3C(=S)N(c4ccc(C#N)c(C(F)(F)F)c4)C(=O)C3(C)C)cc2F)C1 [Compound 63] |  |  | 0% | 
CC1(C)C(=O)N(c2ccc(C#N)c(C(F)(F)F)c2)C(=S)N1c1ccc(CN2Cc3ncccc3C2=O)c(F)c1 [Compound 66, 4-(3-(3-fluoro-4-((5-oxo-5H-pyrrolo[3,4-b]pyridin-6(7H)-yl)methyl)phenyl)-4,4-dimethyl-5-oxo-2-thioxoimidazolidin-1-yl)-2-(trifluoromethyl)benzonitrile] |  |  |  | GR antagonist assay, % of vehicle [2]: 31%; inhibition at 1 µM [3]: 90%
Cn1nccc1C(=O)NCc1ccc(N2C(=S)N(c3ccc(C#N)c(F)c3)C(=O)C2(C)C)cc1F [Compound 74] |  |  |  | inhibition at 10 µM ([2]; 10 μM single concentration): 17%
CC1(C)C(=O)N(c2ccc(C#N)c(C(F)(F)F)c2)C(=S)N1c1ccc(CNS(=O)(=O)c2ccccn2)c(F)c1 [Compound 75] |  |  | 40% | 
CC1(C)C(=O)N(c2ccc(C#N)c(F)c2)C(=S)N1c1ccc(CN2Cc3ncccc3C2=O)c(F)c1 [Compound 78, 2-fluoro-4-(3-(3-fluoro-4-((5-oxo-5,7-dihydro-6H-pyrrolo[3,4-b]pyridin-6-yl)methyl)phenyl)-4,4-dimethyl-5-oxo-2-thioxoimidazolidin-1-yl)benzonitrile] |  |  |  | inhibition at 10 µM ([2]; 10 μM single concentration): 0%
CC1(C)C(=O)N(c2ccc(C#N)c(C(F)(F)F)c2)C(=S)N1c1ccc(CNC(=O)c2ccc3[nH]ncc3c2)c(F)c1 [Compound 79] |  |  | 75% | 
CC1(C)C(=O)N(c2ccc(C#N)c(C(F)(F)F)c2)C(=S)N1c1ccc(CNC(=O)c2ccc3cn[nH]c3c2)c(F)c1 [Compound 80] |  |  | 38% | 
CC#C[C@]1(O)CC[C@H]2[C@@H]3CCC4=CC(=O)CCC4=C3[C@@H](c3ccc(N(C)C)cc3)C[C@@]21C [RU486, reference compound] |  |  |  | GR antagonist assay, % of vehicle [2]: 13%; inhibition at 1 µM ([2]; COS-7, read-out: GR antagonism inhibition at 1 μM): 72.8%
